Legend:
[1] = tested on: isolated working rabbit heart; experiment: Isolated working rabbit heart model of ischaemia; type: in vivo; settings: 30 mg/kg intraperitoneal injection, p<0.05
Experimental: An isolated working rabbit heart model was use to define the cardioprotective effects (function, metabolic and ultrastructure) of caffeic acid phenethyl ester during ischaemia by the method described in Choong, et al., J Cardiovasc Surg (Torino), 1993 October, 34(5):423-433. More specifically, hearts (n=7 for each group) were arrested with and exposed to reinfusion (45 min) throughout the ischaemic period with a cold (4° C.) cardioplegic solution. […] The release of lactate dehydrogenase decreased during 40-minute ischaemic arrest (55.14+/-8.65 vs 19.33+/-7.4 IU/L perfusate for control and treatment, respectively; p<0.05). See […] et al., J Cardiovasc Pharmacol, 1999 October; 34(4):604-611.

[2] = tested on: striatal levels of dopamine, DOPAC and HVA; experiment: MPTP mouse model, striatal levels of dopamine and metabolites by HPLC; type: in vivo, mice; settings: 40 mg/kg intraperitoneally, 48 hours after MPTP
Experimental: Caffeic acid phenethyl ester was evaluated for its efficacy in treating a neurodegenerative disorder in mice. Three groups of eight-week-old male C57B1/6 mice (Taconic Farms Inc., Germantown, N.Y.), 5-7 per group, were used. A group of mice were administered for 9 days with caffeic acid phenethyl ester (5 or 20 mg/kg/day in 10% alcohol by oral gavage, or 40 mg/kg/day in 10% alcohol by intraperitoneal injection). As a control, a second group of mice were administered with 10% alcohol free of caffeic acid phenethyl ester. These two groups of mice then received four intraperitoneal injections of 1-methyl-4-phenyl-1,2,3,6-tetrahydropyridine (“MPTP”)-HCl (20 mg/kg of free base) in saline at 2 hour intervals in a single day, as described in Liberatore, et al., Nat Med, 1999, 5, 1403-1409. The striatal levels of dopamine and its metabolites, dihydroxyphenylacetic acid (DOPAC) and homovanillic acid (HVA), were also determined by HPLC with electrochemical detector. See, e.g., Du, et al., Proc Natl Acad Sci, 2001, 98, 14669-14674.

[3] = tested on: TH-positive neurons in the substantia nigra pars compacta (SNpc); experiment: MPTP mouse model, stereological count of TH-positive neurons in SNpc; type: in vivo, mice
Experimental: Caffeic acid phenethyl ester was evaluated for its efficacy in treating a neurodegenerative disorder in mice. Three groups of eight-week-old male C57B1/6 mice (Taconic Farms Inc., Germantown, N.Y.), 5-7 per group, were used. A group of mice were administered for 9 days with caffeic acid phenethyl ester (5 or 20 mg/kg/day in 10% alcohol by oral gavage, or 40 mg/kg/day in 10% alcohol by intraperitoneal injection). As a control, a second group of mice were administered with 10% alcohol free of caffeic acid phenethyl ester. These two groups of mice then received four intraperitoneal injections of 1-methyl-4-phenyl-1,2,3,6-tetrahydropyridine (“MPTP”)-HCl (20 mg/kg of free base) in saline at 2 hour intervals in a single day, as described in Liberatore, et al., Nat Med, 1999, 5, 1403-1409. Seven days after the last administration of MPTP, the mice were anesthetized by halothane inhalation. […] They were then incubated with rabbit polyclonal anti-tyrosine hydroxylase (anti-TH) antibody (1:2,500, CALBIOCHEM, La Jolla, Calif.), goat biotinylated-conjugated polyclonal anti-rabbit antibody (1:250; Vector Laboratories, Burlingame, Calif.), horseradish-peroxidase conjugated avidin/biotin complex (VECTASTAIN ABC Reagent, Vector Laboratories), and successively exposed to diaminobenzidine for TH-immunohistochemistry analysis and stereological quantification of TH-positive neurons. […]

[4] = tested on: cerebellar granule neurons (CGN) culture; experiment: NO-induced cell death on cultured neurons; type: cell-based; settings: Neuron, cell death induced by nitric oxide, concentration-dependent, read-out: IC50 for blocking nitric oxide-induced neuron cell death
Experimental: Efficacy of caffeic acid phenethyl ester on treating neurodegenerative disorders as well as other disorders related to NO-induced cell death was assessed by testing its ability to block NO-induced cell death on cultured neurons according to a method described in Du, et al., Proc Natl Acad Sci, 2001, 98, 14669-14674.

[5] = tested on: cerebellar granule neurons (CGN) culture; experiment: 6-hydroxydopamine-induced neurotoxicity on cultured neurons; type: cell-based; settings: 6-hydroxydopamine used to induce neurotoxicity

With `O=C(/C=C/c1ccc(O)c(O)c1)OCCc1ccccc1` [caffeic acid phenethyl ester] the “postischaemic recovery of cardiac output” value ([1]; n=7, control 71.48+/−9.66%) was 90.83+/−3.2%, the “release of lactate dehydrogenase during 40-minute ischaemic arrest” value ([1]; control 55.14+/−8.65) was 19.33+/−7.4 IU/L perfusate and the “MPTP-induced reduction of striatal HVA level” value ([2]; MPTP control decreased by 35%) was 16%. The “MPTP-induced reduction of striatal DOPAC level” value ([2]; MPTP control decreased by 46%) was −2%, the “MPTP-induced reduction of striatal dopamine level” value ([2]; MPTP control decreased by 62%) was 3% and the “number of TH-positive neurons in SNpc, as compared with saline-only mice” value ([3]; C57B1/6 mice, 5 or 20 mg/kg/day oral or 40 mg/kg/day i.p. for 9 days, then MPTP 4x20 mg/kg, 7 days after MPTP, MPTP control approximately 49%) was “up to 100%”. For the same compound, the “effect of compound alone on number of TH-positive neurons” value ([3]; treatment alone for nine days, no MPTP) was “did not significantly alter”, the IC50 [4] was ~1 µM and the “neuroprotective effect against 6-hydroxydopamine-induced neurotoxicity” value [5] was “neuroprotective effect”.

Reference: patent US8575215B2, “Treatment of neurodegenerative and cardiovascular disorders” (priority 2001, dated 2013)
